# US10723778B2, “Variants of adrenomedullin and calcitonin gene-related peptide and methods of use” (The Board of Regents of the University of Oklahoma, priority 2015, dated 2020)
# Where no end group is shown, it is not given here.
# Target: T1, RAMP1-CLR ECD (CGRP); purified MBP-RAMP1 ECD-(GS)5-CLR ECD-H6 fusion protein (Homo sapiens, UniProt O60894+Q16602)
# T1 construct: MBP-hRAMP1.24-111-(Gly-Ser)5-hCLR.29-144-H6; made in house; host or cells: E. coli
# Assay: Fluorescence polarization (FP) peptide binding competition assay, CGRP receptor ECD complex
# Details: CGRP (RAMP1-CLR ECD) over AM1 (RAMP2-CLR ECD), FP assay
# Description: Fluorescence polarization peptide binding assay. […] The reactions (50 μL) were incubated for 2 hours at room temperature to reach equilibrium, and the anisotropy was measured in black half-area 96-well plates using a BMG LABTECH's POLARstar® Omega plate reader (Ortenberg, Germany). The reaction buffer was 50 mM HEPES, pH 7.5, 150 mM NaCl, 0.5 mg/ml fatty acid-free BSA, 0.5 mM EDTA, 0.5 mM maltose. Ki values were calculated using nonlinear regression fitting of the competition curves to the exact analytical equations of Roehrl et al. (Biochemistry (2004) 43:16056-66) using GraphPad Prism 5.0 (GraphPad Software, San Diego Calif.).
# (§1) The ability of the indicated peptides to displace a FITC-Ahx-AM(37-52)NH2 [S45W, Q50W] probe (7 nM) from purified MBP-RAMP1 ECD-(GS)5-CLR ECD-H6 fusion protein (15 nM) was assessed by fluorescence polarization (anisotropy). The reactions were incubated for 2 hours at room temperature to reach equilibrium, and the anisotropy was measured in black half-area 96-well plates using a BMG LABTECH's POLARstar® Omega plate reader (Ortenberg, Germany). The reaction buffer was 50 mM HEPES, pH 7.5, 150 mM NaCl, 0.5 mg/ml fatty acid-free BSA, 0.5 mM EDTA, 0.5 mM maltose. KI values were calculated using nonlinear regression fitting of the competition curves to the exact analytical equations of Roehrl et al. (Biochemistry (2004) 43:16056-66) using GraphPad Prism 5.0 (GraphPad Software, San Diego Calif.).
# as §1, with “Single representative experiments conducted with duplicate samples are shown. Error bars are S.E.M. The ability” for “The ability”, “displace a FITC-Ahx-AM(37-52)NH2[S45W, Q50W] probe” for “displace a FITC-Ahx-AM(37-52)NH2 [S45W, Q50W] probe”
# A fluorescence polarization/anisotropy (FP) peptide-binding assay was developed using N-terminally FITC-labeled AM(37-52) S45W/Q50W as the probe, hereafter “FITC-AM W/W.” The probe was custom synthesized and HPLC-purified by RS Synthesis. The large size difference between the MBP-RAMP ECD-CLR ECD fusion proteins (˜65 kDa) and the probe (˜2.5 kDa) ensures a significant anisotropy difference between bound and free states of the probe. […] Kd values for the probe at each of the tethered ECD fusion proteins were determined in equilibrium saturation binding experiments (data not shown), and KI values were determined for unlabeled peptides in equilibrium competition experiments (Table 1; FIGS. 2-5). The data were analyzed according to exact analytical equations using non-linear regression curve fitting in GraphPad Prism 5.0 (GraphPad Software) via user-defined equations.
row,"Receptor Selectivity, fold for CGRP",Substance
1,2820-fold for CGRP,DKDNVAPRSLISPWGF-NH2 [K46L/Q50W/Y52F]
2,23-fold for CGRP,DKDNVAPRSLISPWGY-NH2 [K46L/Q50W]
3,24-fold for CGRP,DKDNVAPRTLISPWGY-NH2 [S45T/K46L/Q50W]
4,28-fold for CGRP,DKDNVAPRTWISPWGY-NH2 [S45T/K46W/Q50W]
5,977-fold for CGRP,DKDNVAPRWMISPWGF-NH2 [S45W/K46M/Q50W/Y52F]
6,692-fold for CGRP,DKDNVAPRWWISPWGF-NH2 [S45W/K46W/Q50W/Y52F]
7,22-fold for CGRP,DKFNVAPRSLISPWGY-NH2 [D39F/K46L/Q50W]
8,821-fold for CGRP,FVPTDTGPWGY-NH2 [N31D/V32T/S34P/K35W/A36G/F37Y]
9,≥2754-fold for CGRP,FVPTDTGPWSF-NH2 [N31D/V32T/S34P/K35W/A36S]

# Same assay, conditions: CGRP vs AM1 receptor ECD complexes, FP assay
row,Receptor Selectivity (in words),Substance
1,Non-selective,DKDNVAPRWKISPWGY-NH2 [S45W/Q50W]
2,AM1,DKKNVAPRSKISPQGY-NH2 [Peptide D39K]

# Same assay, conditions: FP assay
row,KI for the CGRP receptor ECD complex,Substance
1,well into the pM range,FVPTDTGPWSF-NH2 [N31D/V32T/S34P/K35W/A36S]

# Same assay, conditions: FP competition, FITC-AM W/W probe 7 nM, fusion protein 15 nM
row,RAMP1-CLR ECD (CGRP) KI (nM),Substance
1,No binding,DKKNVAPRSKISPQGY-NH2 [Peptide D39K]

# Same assay, conditions: RAMP1-CLR ECD (CGRP) KI (nM), FP competition, FITC-AM W/W probe 7 nM, fusion protein 15 nM
row,Ki,Substance
1,31.6 nM,DKDNVAPRSLISPWGF-NH2 [K46L/Q50W/Y52F]
2,70.8 nM,DKDNVAPRSLISPWGY-NH2 [K46L/Q50W]
3,65.6 nM,DKDNVAPRTLISPWGY-NH2 [S45T/K46L/Q50W]
4,439 nM,DKDNVAPRTWISPWGY-NH2 [S45T/K46W/Q50W]
5,44.7 nM,DKDNVAPRWKISPWGY-NH2 [S45W/Q50W]
6,7.94 nM,DKDNVAPRWMISPWGF-NH2 [S45W/K46M/Q50W/Y52F]
7,24 nM,DKDNVAPRWWISPWGF-NH2 [S45W/K46W/Q50W/Y52F]
8,82.2 nM,DKFNVAPRSLISPWGY-NH2 [D39F/K46L/Q50W]
9,17.6 nM,FVPTDTGPWGY-NH2 [N31D/V32T/S34P/K35W/A36G/F37Y]
10,< 1 nM,FVPTDTGPWSF-NH2 [N31D/V32T/S34P/K35W/A36S]

# Same assay, conditions: RAMP1-CLR ECD (CGRP) pKI, FP competition, FITC-AM W/W probe 7 nM, fusion protein 15 nM; mean ± S.E.M of at least 3 independent experiments
row,Ki,Substance
1,79.4 nM,DKFNVAPRSLISPWGY-NH2 [D39F/K46L/Q50W]
